We go through 12 molecules from ChEMBL document CHEMBL4346712, “Research progress in the biological activities of 3,4,5-trimethoxycinnamic acid (TMCA) derivatives” (Eur J Med Chem, 2019).

Converted amounts (≈) assume the structure as drawn.

The target in data set [1] is High mobility group protein B1 (Homo sapiens) (UniProt P09429). The experiment in a line: Inhibition of HMGB1 (unknown origin) at 10 uM by ELISA relative to control.
The species named for data set [2] is Mus musculus. The experiment in a line: Inhibition of HMGB1 in mouse model relative to control. In kind it is functional.
Data set [3] can be described thus: Cytotoxicity against […] B16 cells. In kind it is functional, cell-based.
Data set [4] concerns Candida tropicalis. The experiment in a line: Antifungal activity against Candida tropicalis ATCC 750 after 24 hrs by CLSI broth microdilution method. The following applies: ATCC 750, 24 h. The data set is classed as functional, organism-based.
Data set [5] has as its system Pichia kudriavzevii. In words: Antifungal activity against Candida krusei ATCC 6258 after 24 hrs by CLSI broth microdilution method. The data set is classed as functional, organism-based. The following applies: ATCC 6258, 24 h.
Data set [6] can be described thus: Cytotoxicity against BHK21 cells assessed as reduction in cell viability after 48 hrs by MTT assay. The data set is classed as cell-based, Mesocricetus auratus, BHK-21. Conditions: hamster.
Data set [7] is described as follows: Selectivity index, ratio of CC50 for BHK21 cells to IC50 for Candida tropicalis ATCC 750. In kind it is toxicity. The following applies: hamster, read-out: Ratio CC50/IC50.
A short description of data set [8]: Selectivity index, ratio of CC50 for BHK21 cells to IC50 for Candida krusei ATCC 6258. The data set is classed as toxicity. The following applies: hamster, read-out: Ratio CC50/IC50.
Data set [9] is described as follows: Growth inhibition of HUVEC. The following applies: human, HUVEC cells. The data set is classed as cell-based.
The nature of data set [10]: Growth inhibition of HUVEC at 5 uM relative to control. Conditions: human, HUVEC cells; read-out: GI. In kind it is cell-based.
Data set [11] concerns Platelet. In words: Antiplatelet activity in rabbit platelet rich plasma assessed as inhibition of ADP-induced platelet aggregation at 30 ug/ml relative to control. In kind it is functional. Conditions: Oryctolagus cuniculus.
Data set [12] relates to Platelet. In words: Antiplatelet activity in rabbit platelet rich plasma assessed as inhibition of PAF-induced platelet aggregation at 50 ug/ml relative to control. The data set is classed as functional. Conditions: Oryctolagus cuniculus.
Data set [13] addresses Platelet-activating factor receptor (Homo sapiens) (UniProt P25105). In words: Inhibition of PAF receptor (unknown origin) assessed as reduction in receptor to rabbit platelet binding at 20 ug/ml relative to control.
For data set [14], the target named is T1, Bifunctional epoxide hydrolase 2 (Homo sapiens, UniProt P34913).
T1 sequence (P34913 whole entry): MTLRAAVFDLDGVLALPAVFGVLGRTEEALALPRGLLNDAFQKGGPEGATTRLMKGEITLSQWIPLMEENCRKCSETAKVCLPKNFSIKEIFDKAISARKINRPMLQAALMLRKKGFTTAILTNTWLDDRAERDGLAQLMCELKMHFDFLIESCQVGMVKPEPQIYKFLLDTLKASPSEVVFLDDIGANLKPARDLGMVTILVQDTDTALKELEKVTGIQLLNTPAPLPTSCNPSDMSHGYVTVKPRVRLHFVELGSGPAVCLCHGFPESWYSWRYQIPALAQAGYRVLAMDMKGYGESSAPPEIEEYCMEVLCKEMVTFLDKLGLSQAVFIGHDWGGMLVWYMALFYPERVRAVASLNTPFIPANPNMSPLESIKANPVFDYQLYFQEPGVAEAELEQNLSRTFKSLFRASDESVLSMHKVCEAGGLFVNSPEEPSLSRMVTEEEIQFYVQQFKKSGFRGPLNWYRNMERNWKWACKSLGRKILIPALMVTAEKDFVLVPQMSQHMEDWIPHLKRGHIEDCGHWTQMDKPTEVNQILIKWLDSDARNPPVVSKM
In words: Competitive inhibition of soluble epoxide hydrolase (unknown origin).

The target in data set [15] is T2, Bifunctional epoxide hydrolase 2 (Homo sapiens) (UniProt P34913).
T2 sequence (whole entry): T1 sequence (P34913 whole entry)
The experiment in a line: Competitive inhibition of soluble epoxide hydrolase (unknown origin) at 100 uM relative to control.

The test system of data set [16] is Platelet. In words: Antiplatelet activity in rabbit platelet rich plasma assessed as inhibition of collagen-induced platelet aggregation at 300 uM preincubated for 3 mins followed by collagen addition measured after 10 mins relative to control. Conditions: Oryctolagus cuniculus. The data set is classed as functional.
The subject of data set [17] is Platelet. The experiment in a line: Antiplatelet activity in rabbit platelet rich plasma assessed as inhibition of arachidonic acid-induced platelet aggregation at 300 uM preincubated for 3 mins followed by arachidonic acid addition measured after 10 mins relative to control. The data set is classed as functional. Conditions: Oryctolagus cuniculus.
Data set [18] relates to Platelet. In words: Antiplatelet activity in rabbit platelet rich plasma assessed as inhibition of PAF-induced platelet aggregation at 300 uM preincubated for 3 mins followed by PAF addition measured after 10 mins relative to control. The data set is classed as functional. Conditions: Oryctolagus cuniculus.
Data set [19] deals with Platelet. The experiment in a line: Antiplatelet activity in rabbit platelet rich plasma assessed as inhibition of arachidonic acid-induced platelet aggregation at 150 uM preincubated for 3 mins followed by arachidonic acid addition measured after 10 mins relative to control. The data set is classed as functional. The following applies: Oryctolagus cuniculus.
In data set [20] the test system is Platelet. The experiment in a line: Antiplatelet activity in rabbit platelet rich plasma assessed as inhibition of PAF-induced platelet aggregation at 150 uM preincubated for 3 mins followed by PAF addition measured after 10 mins relative to control. Conditions: Oryctolagus cuniculus. In kind it is functional.
Data set [21] deals with 5-hydroxytryptamine receptor 1A (Homo sapiens, UniProt P08908). In words: Displacement of [3H]8-OH-DPAT from 5-HT1A receptor (unknown origin) expressed in CHO-K1 cell membranes after 60 mins by microbeta counting method.
The test system of data set [22] is HepG2 2.2.15. The experiment in a line: Cytotoxicity against human HepG2(2.2.15) cells after 24 hrs by MTT assay. In kind it is functional. The following applies: HepG2 2.2.15, 24 h.
Data set [23] relates to Hepatitis B virus. The experiment in a line: Antiviral activity against Hepatitis B virus infected in human HepG2.2.15 cells assessed as reduction in HBsAg secretion by ELISA. The data set is classed as functional, organism-based.
The test system of data set [24] is Hepatitis B virus. In words: Antiviral activity against Hepatitis B virus infected in human HepG2.2.15 cells assessed as reduction in HBeAg secretion by ELISA. In kind it is functional, organism-based.
For data set [25], the target named is Sodium-dependent serotonin transporter (Homo sapiens, UniProt P31645). In words: Displacement of [3H]Imipramine from human 5-HT transporter expressed in HEK-293 cell membranes after 30 mins.
Sodium-dependent serotonin transporter, sequence (P31645 whole entry): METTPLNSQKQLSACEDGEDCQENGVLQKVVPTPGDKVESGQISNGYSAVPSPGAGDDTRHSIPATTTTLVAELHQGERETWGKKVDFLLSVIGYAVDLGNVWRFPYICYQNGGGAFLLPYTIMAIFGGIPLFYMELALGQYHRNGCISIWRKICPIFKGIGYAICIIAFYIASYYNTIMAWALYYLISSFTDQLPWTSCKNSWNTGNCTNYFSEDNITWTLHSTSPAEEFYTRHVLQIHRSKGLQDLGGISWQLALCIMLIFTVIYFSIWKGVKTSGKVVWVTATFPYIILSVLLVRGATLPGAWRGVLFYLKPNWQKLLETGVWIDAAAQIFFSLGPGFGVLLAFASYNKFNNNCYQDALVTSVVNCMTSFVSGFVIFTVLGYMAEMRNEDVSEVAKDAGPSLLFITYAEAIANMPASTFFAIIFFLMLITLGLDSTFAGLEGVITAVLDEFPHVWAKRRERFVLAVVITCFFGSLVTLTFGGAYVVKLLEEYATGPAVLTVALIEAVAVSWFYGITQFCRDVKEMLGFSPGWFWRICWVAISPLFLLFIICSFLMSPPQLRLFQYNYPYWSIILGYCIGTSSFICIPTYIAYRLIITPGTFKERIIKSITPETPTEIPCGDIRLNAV

5-hydroxytryptamine receptor 1A, sequence (P08908 whole entry): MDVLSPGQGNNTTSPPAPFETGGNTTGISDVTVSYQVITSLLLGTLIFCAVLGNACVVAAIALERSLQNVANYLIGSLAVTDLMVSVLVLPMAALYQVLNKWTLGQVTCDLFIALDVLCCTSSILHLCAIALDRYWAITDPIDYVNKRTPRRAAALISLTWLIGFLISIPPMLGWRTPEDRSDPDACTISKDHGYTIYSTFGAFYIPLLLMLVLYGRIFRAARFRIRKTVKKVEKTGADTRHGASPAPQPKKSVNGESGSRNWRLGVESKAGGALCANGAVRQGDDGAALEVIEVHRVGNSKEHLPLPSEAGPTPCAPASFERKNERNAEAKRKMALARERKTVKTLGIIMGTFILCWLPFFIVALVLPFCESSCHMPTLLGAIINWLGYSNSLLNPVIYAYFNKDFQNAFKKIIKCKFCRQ
High mobility group protein B1 (Homo sapiens), sequence (P09429 whole entry): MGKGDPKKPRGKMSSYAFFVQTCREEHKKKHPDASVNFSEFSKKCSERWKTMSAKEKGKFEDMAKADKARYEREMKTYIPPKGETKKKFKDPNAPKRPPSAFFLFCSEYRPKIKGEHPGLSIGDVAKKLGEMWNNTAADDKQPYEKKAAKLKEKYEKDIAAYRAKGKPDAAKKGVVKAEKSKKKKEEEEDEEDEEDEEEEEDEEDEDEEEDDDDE
Platelet-activating factor receptor (Homo sapiens), sequence (P25105 whole entry): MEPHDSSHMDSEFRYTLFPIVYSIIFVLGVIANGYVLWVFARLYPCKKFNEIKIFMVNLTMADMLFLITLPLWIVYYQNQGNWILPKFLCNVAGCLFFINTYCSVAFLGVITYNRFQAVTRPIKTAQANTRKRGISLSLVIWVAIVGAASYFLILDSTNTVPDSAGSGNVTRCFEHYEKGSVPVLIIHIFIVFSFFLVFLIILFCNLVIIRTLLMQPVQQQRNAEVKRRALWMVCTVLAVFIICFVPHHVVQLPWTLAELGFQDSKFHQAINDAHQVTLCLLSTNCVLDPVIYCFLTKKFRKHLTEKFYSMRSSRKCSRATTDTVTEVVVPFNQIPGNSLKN

In the case of `COc1cc(/C=C/C(=O)Oc2ccc3[nH]c4ccccc4c3c2)cc(OC)c1OC`, in [1], the inhibition is 70.2%. Moreover, in data set [2], the “inhibition (INH)” value was 58.9%.

The molecule `COc1cc2oc(=O)cc(COC(=O)/C=C/c3cc(OC)c(OC)c(OC)c3)c2cc1OC` came in with an IC50 in data set [3] of 6.74 µg/mL (≈ 14.8 µM).

Take `COc1cc(/C=C/C(=O)N2CCOCC2)cc(OC)c1OC`: the IC50 worked out at 97.7 µM in data set [4] and 48.8 µM in data set [5]. Besides, the CC50 at 48 h in [6] was determined as 186 µM. The selectivity ratio in data set [7] stood at 1.89; in [8] it was 3.79.

Turning to `COc1cc(/C=C/C(=O)Nc2ccc(NC(=O)[C@@H](O)[C@H](N)CCc3ccccc3)cc2)cc(OC)c1OC`, the concentration for 50% growth inhibition (GI50) in data set [9] is 0.85 µM. Further, the inhibition at 5 µM in [10] is more than 98%.

Turning to `COc1ccc(CCNC(=O)/C=C/c2cc(OC)c(OC)c(OC)c2)cc1`, in data set [11], the inhibition at 30 µg/mL is 29.1%. Moreover, the inhibition at 50 µg/mL in data set [12] is 39.3%. Also, in [13], the inhibition was determined as 19%.

`COc1cc(/C=C/C(=O)O[C@H]2[C@H](O)[C@@H](CO)O[C@]2(CO)O[C@H]2O[C@H](CO)[C@@H](OC(=O)c3ccccc3)[C@H](O)[C@H]2O)cc(OC)c1OC` had a 50% inhibitory concentration (IC50) in [14] of 18 µM. For the same molecule, the inhibition in [15] is more than 100%.

`COc1cc(/C=C/C(=O)Nc2ccc(NC(=O)[C@@H](O)[C@H](N)CC3CCCCC3)cc2)cc(OC)c1OC`: the GI50 in data set [9] came to 0.67 µM. Also, the inhibition at 5 µM in data set [10] was more than 98%.

Take `CC(=O)Oc1ccccc1C(=O)O` [ASPIRIN]: the inhibition at 300 µM in [16] amounted to 5.8%; in data set [17], 100%; in [18] it was 0.3%. Further, the values for the inhibition at 150 µM in data set [19] and in [20] were 75% and 0.3%, respectively.

As for `COc1cc(/C=C/C(=O)O[C@H]2[C@H](O)[C@@H](CO)O[C@@]2(CO)O[C@H]2O[C@H](COC(=O)c3ccc(O)cc3)[C@@H](O)[C@H](O)[C@H]2O)cc(OC)c1OC`, in data set [14], the IC50 turned out to be 9.1 µM. Also, in data set [15], the inhibition was more than 100%.

As to `COc1cc(/C=C/C(=O)Oc2ccccc2)cc(OC)c1OC`, the 50% inhibitory concentration (IC50) in data set [21] is 9.4 µM.

In turn, `COc1cc(/C=C/C(=O)ON=C2C3CC4CC(C3)CC2C4)cc(OC)c1OC` came in with a CC50 in data set [22] of 507 µM. Moreover, the IC50 in data set [23] turned out to be 107 µM; in data set [24], 74.8 µM.

In data set [25], `COc1cc(/C=C/C(=O)O)cc(OC)c1OC` [SINAPIC ACID METHYL ETHER] yielded a half-maximal inhibitory concentration (IC50) of more than 10 µM.
